Measured values as given in PubChem BioAssay (NCI).
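Dose response: 5 concentrations. Exposure: 48 h. Format: 96-well plates. Endpoint: linear interpolation; highest concentration if not reached. GI50: concentration for 50% inhibition of growth. TGI: total growth inhibition.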

Key:
Assay in all cases: inhibition of tumour cell growth, NCI panel, 48 h
KM12 colon = system: KM12 colon
IGROV1 ovarian = system: IGROV1 ovarian
UO-31 renal = system: UO-31 renal
HCT-15 colon = system: HCT-15 colon
SF-539 CNS = system: SF-539 CNS
ACHN renal = system: ACHN renal
HOP-62 NSCLC = system: HOP-62 NSCLC
RPMI-8226 leukemia = system: RPMI-8226 leukemia

Compound	GI50 (KM12 colon)	TGI (KM12 colon)	GI50 (IGROV1 ovarian)	TGI (IGROV1 ovarian)	GI50 (UO-31 renal)	TGI (UO-31 renal)	GI50 (HCT-15 colon)	TGI (HCT-15 colon)	GI50 (SF-539 CNS)	TGI (SF-539 CNS)	GI50 (ACHN renal)	TGI (ACHN renal)	GI50 (HOP-62 NSCLC)	TGI (HOP-62 NSCLC)	GI50 (RPMI-8226 leukemia)	TGI (RPMI-8226 leukemia)
COc1ccc(-c2cc(-c3ccc(Cl)cc3)nc(NCCCCNc3ccnc4cc(Cl)ccc34)n2)cc1	1900 nM	3.72 µM	1460 nM	3.12 µM	1830 nM	12.7 µM	1690 nM	3.71 µM	6800 nM	20.9 µM	12600 nM	25.6 µM	1690 nM	3.44 µM	2140 nM	5.66 µM
COc1ccc2c(O)c(/C=C3\N=Nc4ncccc43)oc2c1C[C@@H]1CCNC[C@H]1F	314 nM	1.4 µM	1790 nM	8.11 µM	1610 nM	5.18 µM	234 nM	1.87 µM	428 nM	1.99 µM	510 nM	2.83 µM	336 nM	2.94 µM	266 nM	0.984 µM
OC1CCCC2CCC[N-]C12.OC1CCCC2CCC[N-]C12.[O]=[V][OH] (stereo not drawn)	7240 nM	> 100 µM	2370 nM	12.2 µM	2130 nM	9.29 µM	789 nM	12.5 µM	15800 nM	> 100 µM	8210 nM	> 100 µM	7150 nM	> 100 µM	2540 nM	25.8 µM
CCN(CC)CCN1c2nc3ccccc3cc2Sc2cc3ccccc3nc21	2010 nM	5 µM	473 nM	2.48 µM	970 nM	5.09 µM	1580 nM	3.76 µM	1600 nM	3.16 µM	2580 nM	9.29 µM	1420 nM	3.06 µM	1000 nM	2.97 µM
C#CC1(O)C(COP(=O)(O)OCC2OC(n3cc(F)c(=O)[nH]c3=O)CC2O)OC(n2ccc(N)nc2=O)C1O (stereo not drawn)	< 10 nM	> 23.8 µM	39.8 nM	> 100 µM	< 10 nM	> 100 µM	< 16.6 nM	> 100 µM	< 10 nM	0.527 µM	46.9 nM	> 100 µM	< 32.8 nM	1.28 µM	< 10 nM	0.119 µM
O=C(Nc1cc(Cl)ccc1O)c1cccc(Nc2ccnc(C(F)(F)F)c2)c1	3680 nM	14.4 µM	7470 nM	33.9 µM	2300 nM	11.3 µM	2610 nM	42.1 µM	2070 nM	15 µM	2130 nM	81.2 µM	4400 nM	23.5 µM	822 nM	4.04 µM
Fc1ccc(-c2nn3ccccc3c2-c2ccncc2)cc1	> 25000 nM	> 25 µM	12900 nM	> 25 µM	8260 nM	> 25 µM	> 25000 nM	> 25 µM	> 25000 nM	> 25 µM	12100 nM	> 25 µM	> 25000 nM	> 25 µM	> 25000 nM	> 25 µM
CCN(CC)c1ccc(-c2cc(-c3cc(OC)c(OC)c(OC)c3)nc(N3CCC(O)CC3)c2C#N)cc1	512 nM	2.98 µM	373 nM	> 27.7 µM	274 nM	1.82 µM	260 nM	1.93 µM	554 nM	2.47 µM	406 nM	> 42.5 µM	1010 nM	11.9 µM	232 nM	4.78 µM
Cn1c(=O)c(Oc2ccc(F)cc2F)cc2cnc(N[C@@H]3CCOC3)nc21	> 25000 nM	> 25 µM	> 25000 nM	> 25 µM	> 11000 nM	> 16.2 µM	> 25000 nM	> 25 µM	> 25000 nM	> 25 µM	> 25000 nM	> 25 µM	> 25000 nM	> 25 µM	> 25000 nM	> 25 µM
COc1ccc2c(c1)CCc1cc(OC)ccc1/[N+]([O-])=[N+]\2[O-]		46 µM		35 µM		25.9 µM		42.9 µM		44 µM		26.3 µM		52.8 µM		> 25.1 µM
C#C[C@@]1(O)[C@@H](CO)O[C@@H](n2cc(C(F)(F)F)c3c(N)ncnc32)[C@@H]1O	365 nM	> 30.4 µM	103 nM	> 100 µM	311 nM	3.16 µM	679 nM	> 25.5 µM	860 nM	2.71 µM	831 nM	> 100 µM	1750 nM	> 100 µM	886 nM	4.56 µM
N#Cc1nc(C#N)c(Sc2ccccc2)c(Sc2ccccc2)c1Sc1ccccc1	1670 nM	3.26 µM	732 nM	2.3 µM	415 nM	1.08 µM	574 nM	3.21 µM	399 nM	1.31 µM	395 nM	1.79 µM		> 20 µM	638 nM	> 28.3 µM
